≈ marks a conversion by molar mass, not a printed value. Read-outs that look alike come from different tables or passages of the source. Non-standard residues stand in square brackets, D forms with d. Residues, ends and D or L forms follow the SMILES beside them. No end group written: not given here.
Key:
S. pneumoniae C719 = assay: Antimicrobial assays II, NCCLS broth microdilution MIC; assay type: cell-based, Streptococcus pneumoniae; conditions: mean of three, in µg/mL
in vitro [1] = conditions: human, WI38 normal lung fibroblast cells, LD50 WI38, WI38 normal lung fibroblast line, MTT, 24 hours with peptide
S. aureus (MRSA) = assay type: cell-based, Staphylococcus aureus; conditions: for S. aureus (MRSA) MIC: mean of three, 16 to 20 hours at 35° C.; for MIC S. aureus SAP0017: Table 13, strain SAP0017, in µg/mL
S. pyogenes M76 = assay: Antimicrobial assays II, NCCLS broth microdilution MIC; assay type: cell-based, Streptococcus pyogenes; conditions: mean of three; 16 to 20 hours at 35° C.
S. epidermidis C621 = assay type: cell-based, Staphylococcus epidermidis; conditions: for S. epidermidis C621 MIC: mean of three, 16 to 20 hours at 35° C.; for MIC S. epidermis C621: Table 13, in µg/mL
[2] = system: Staphylococcus aureus ATCC 6538; assay: Antimicrobial assay I, MIC by OD measurement; assay type: cell-based; conditions: 37° C. for 24 hours, absorbance 620 nm
[3] = system: Pseudomonas aeruginosa ATCC 9027; assay: Antimicrobial assay I, MIC by OD measurement; assay type: cell-based; conditions: 37° C. for 24 hours, absorbance 620 nm
MCF7 = assay: Anti-cancer assay, MTT, LD50; assay type: cell-based; conditions: MCF7 breast adenocarcinoma line, MTT, 24 hours with peptide
From the text: (§1) Numbers are LD50 values (μg/mL).

SW480 = assay: Anti-cancer assay, MTT, LD50; assay type: cell-based; conditions: SW480 colon adenocarcinoma line, 24 hours with peptide
From the text: as §1

H1299 = assay: Anti-cancer assay, MTT, LD50; assay type: cell-based; conditions: 24 hours with peptide, lung large cell carcinoma
From the text: as §1

HeLaS3 = assay: Anti-cancer assay, MTT, LD50; assay type: cell-based; conditions: 24 hours with peptide, cervical carcinoma
From the text: as §1

WI38 = conditions: MTT, 24 hours with peptide; normal fibroblast line
P. acne ATCC 6919 = assay: Antimicrobial assays II, NCCLS broth microdilution MIC; assay type: cell-based, Propionibacterium acnes; conditions: mean of three, in µg/mL
S. pneumoniae C718 = assay: as above; assay type: cell-based, Streptococcus pneumoniae; conditions: mean of three
S. pyogenes ATCC19615 = assay: as above; assay type: cell-based, Streptococcus pyogenes; conditions: mean of three, in µg/mL
[4] = system: yeast (Saccharomyces cerevisiae); assay: Antimicrobial assay I, yeast assay in RPMI 1640; assay type: cell-based; conditions: RPMI 1640 media
P. aeruginosa H774 = assay type: cell-based, Pseudomonas aeruginosa; conditions: P. aeruginosa H744; nalidixic acid + peptide at ¼ MIC; 0.5 or less = synergy
Outline: (§2)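 Efflux-mutant strains were tested with two-fold serial dilutions of chloramphenicol or nalidixic acid, alone and with peptide held at ¼ of its own MIC.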

P. aeruginosa H374 [5] = assay type: cell-based, Pseudomonas aeruginosa; conditions: for MIC Cm-comb.: MIC of chloramphenicol with peptide at ¼ MIC; for MIC Nal-comb.: MIC of nalidixic acid with peptide at ¼ MIC; for FIC Index: 0.5 or less = synergy
Outline: as §2

P. aeruginosa = assay type: cell-based, Pseudomonas aeruginosa; conditions: P. aeruginosa H744; MIC of nalidixic acid with peptide at ¼ MIC
Outline: as §2

in vitro [6] = assay type: cell-based, human; conditions: human, human red blood cells, pH 7, hemolytic assay, concentration at 50% hemolysis, 1 hour at 37° C.; read-out: LD50
PC3 = assay: Anti-cancer assay, MTT, LD50; assay type: cell-based; conditions: 24 hours with peptide, prostate adenocarcinoma
From the text: as §1

BMKC = assay: Anti-cancer assay, MTT, LD50; assay type: cell-based; conditions: BMKC cloned melanoma line, 24 hours with peptide
From the text: as §1

Candida albicans 105 = assay type: cell-based; conditions: Table 13; in µg/mL
P. aeruginosa H374 [7] = assay type: cell-based, Pseudomonas aeruginosa; conditions: in µg/mL
[8] = system: Pseudomonas aeruginosa 100609; assay type: cell-based; conditions: Table 9; in µg/mL
[9] = system: Pseudomonas aeruginosa 105663; assay type: cell-based; conditions: Table 9; in µg/mL
S. typhimurium 14028S = assay type: cell-based, Salmonella typhimurium; conditions: Table 12
[10] = system: Candida glabrata ATCC15126; assay: Antimicrobial assays II, NCCLS broth microdilution MIC; assay type: cell-based; conditions: Table 13; in µg/mL
[11] = system: Pseudomonas aeruginosa H187; assay type: cell-based; conditions: in µg/mL
E. coli UB1005 = assay type: cell-based, Escherichia coli; conditions: Table 12

Compound | S. pneumoniae MIC (S. pneumoniae C719) | S. aureus (MRSA) MIC (S. aureus (MRSA)) | S. pyogenes M76 MIC (S. pyogenes M76) | S. epidermidis C621 MIC (S. epidermidis C621) | P. acne MIC (P. acne ATCC 6919) | S. pneumoniae MIC (S. pneumoniae C718) | S. pyogenes MIC (S. pyogenes ATCC19615) | MIC C. albicans 105 (Candida albicans 105) | MIC P. aeruginosa H374 (P. aeruginosa H374 [7]; Table 9) | MIC P. aeruginosa H374 (P. aeruginosa H374 [7]; Table 12) | MIC S. aureus SAP0017 (S. aureus (MRSA)) | MIC S. epidermis C621 (S. epidermidis C621) | MIC P. aeruginosa Tb 100609 [8] | MIC P. aeruginosa Tb 105663 [9] | MIC S. typhimurium 14028S (S. typhimurium 14028S) | MIC C. glabrata ATCC15126 [10] | MIC P. aeruginosa H187 ([11]; Table 9) | MIC P. aeruginosa H187 ([11]; Table 12) | MIC E. coli UB1005 (E. coli UB1005) | other results
CC[C@H](C)[C@H](NC(=O)CNC(=O)[C@H](CC(C)C)NC(=O)[C@H](CCCCN)NC(=O)[C@H](C)NC(=O)[C@H](CC(C)C)NC(=O)[C@H](C)NC(=O)[C@@H](NC(=O)[C@H](CCCCN)NC(=O)[C@H](C)NC(=O)[C@@H](NC(=O)[C@@H](N)CCCCN)[C@@H](C)CC)C(C)C)C(=O)NCC(=O)N[C@@H](C)C(=O)N[C@H](C(=O)N[C@@H](CC(C)C)C(=O)N[C@@H](CCCCN)C(=O)N[C@H](C(=O)N[C@@H](CC(C)C)C(=O)N[C@H](C(=O)N[C@H](C(=O)NCC(=O)N[C@@H](CC(C)C)C(N)=O)[C@@H](C)O)[C@@H](C)O)C(C)C)C(C)C [P105] | 32 | 32 µg/mL | 16 µg/mL | 8 µg/mL | 16 | 64 µg/mL | 16 | – | – | – | – | – | – | – | – | – | – | – | – | CC50 at 24 h (in vitro [1]): 430 µg/mL (≈ 189 µM); staph6538 (MIC) [2]: 200 µg/mL; paerug9027 (MIC) [3]: 200 µg/mL; LD50 MCF7 (MCF7): 635 µg/mL; LD50 SW480 (SW480): > (> indicates greater than 1000); H1299 LD50 (H1299): > (> indicates greater than 1000); HeLaS3 LD50 (HeLaS3): > (> indicates greater than 1000); WI38 LD50 (WI38): 430 µg/mL; yeast (MIC or MFC) [4]: > (> indicates greater than 200 μg/mL)
VALALKALKKLLKKLKKLAKKAL-NH2 [P510] | 16 | 8 µg/mL | 8 µg/mL | 4 µg/mL | 2 | 64 µg/mL | 8 | – | – | – | – | – | – | – | – | – | – | – | – | FIC Index (P. aeruginosa H774): 1.25; MIC Cm-comb. (P. aeruginosa H374 [5]): 4 µg/mL; MIC Nal-comb. (P. aeruginosa H374 [5]): 625 µg/mL; FIC Index (P. aeruginosa H374 [5]; chloramphenicol + peptide at ¼ MIC): 0.5; FIC Index (P. aeruginosa H374 [5]; nalidixic acid + peptide at ¼ MIC, FIC=0.25+MIC comb/MIC alone): 0.375; MIC Nal-comb. (P. aeruginosa): 624 µg/mL; HC50 at 1 h (in vitro [6]): 10 µg/mL
FAKKFAKKFKKFAKKFAKFAFAF-NH2 [P301, reference compound] | 8 | 8 µg/mL | 8 µg/mL | 4 µg/mL | 2 | > 128 µg/mL | 8 | – | – | – | – | – | – | – | – | – | – | – | – | MIC Cm-comb. (P. aeruginosa H374 [5]): 16 µg/mL; MIC Nal-comb. (P. aeruginosa H374 [5]): 625 µg/mL; MIC Nal-comb. (P. aeruginosa): 624 µg/mL; LD50 MCF7 (MCF7): 64 µg/mL; PC3 LD50 (PC3): 45 µg/mL; LD50 SW480 (SW480): 76 µg/mL; LD50 BMKC (BMKC): 140 µg/mL; H1299 LD50 (H1299): 77 µg/mL; HeLaS3 LD50 (HeLaS3): 170 µg/mL; WI38 LD50 (WI38): 66 µg/mL; HC50 at 1 h (in vitro [6]): 10 µg/mL
FAKLLAKLAKKVL-NH2 [P124 (86)] | – | – | – | – | – | – | – | 16 | 16 | 16 | 8 | 4 | 64 | 64 | 16 µg/mL | 16 | 32 | 32 | 16 µg/mL | –
FALALKALKKLAKKLKKLAKKAL-NH2 [P25 (10)] | – | – | – | – | – | – | – | 32 | 8 | 8 | 16 | 4 | 8 | 8 | 8 µg/mL | 32 | 8 | 8 | 8 µg/mL | –
KWKLFKKKTKLFKKFAKKLAKKL-NH2 [P73 (49)] | – | – | – | – | – | – | – | 32 | 8 | 8 | 16 | 4 | 16 | 16 | 16 µg/mL | 128 | 16 | 16 | 8 µg/mL | –
CC(C)C[C@H](NC(=O)[C@H](C)NC(=O)[C@H](CCCCN)NC(=O)[C@H](CCCCN)NC(=O)[C@H](CC(C)C)NC(=O)[C@H](C)NC(=O)[C@H](CCCCN)NC(=O)[C@H](CCCCN)NC(=O)[C@H](CC(C)C)NC(=O)[C@@H](CCCCN)NC(=O)[C@@H](CCCCN)NC(=O)[C@H](CC(C)C)NC(=O)[C@H](C)NC(=O)[C@H](CCCCN)NC(=O)[C@H](CCCCN)NC(=O)[C@H](CC(C)C)NC(=O)[C@H](C)NC(=O)[C@H](CCCCN)NC(=O)[C@H](CC(C)C)NC(=O)[C@H](C)NC(=O)[C@H](CC(C)C)NC(=O)[C@H](C)NC(=O)[C@@H](N)Cc1ccccc1)C(=O)O [P37 (19)] (H-FALALKALKKAL[dK][dK]LKKALKKAL-OH; N-terminus assumed) | – | – | – | – | – | – | – | 32 | 8 | 8 | 8 | 4 | 16 | 16 | 8 µg/mL (≈ 3.15 µM) | 32 | 8 | 8 | 4 µg/mL (≈ 1.58 µM) | –

Reference: patent US20050209157A1, “Short bioactive peptides and methods for their use” (priority 2001, published 2005)
